Where “and” joins values, the source holds several entries; their conditions need not be identical. Equal values may be shown once. Entries after “also recorded” stand apart in the source; their conditions may differ.
Columns and labels:
[1] = test system: Il-1b-stimulated MIO-M1 cells; experiment: Co-incubation with selective receptor antagonists in Il-1b-stimulated MIO-M1 cells; format: cell-based, human; conditions: stimulated Muller (MIO-M1) cells, receptor blockers
Method: FIG. 3 Contribution of glucocorticoid and mineralocorticoid receptor signalling to the anti-inflammatory effect of FA in vitro.
(§1) IL-1β and TNF-α were administered to MIO-M1 cells to initiate an inflammatory response in order to test the anti-inflammatory properties of the selected corticosteroids. MIO-M1 cells were grown to a cell density of 50,000 cells per well in a 24 well plate using growth media and foetal bovine serum as described (Section 2.1.1). MIO-M1 cells were challenged with either 1 ng/μl of IL-1β or TNF-α (R&D Systems, MN, USA). Experimental wells were treated with either 1 μg/μl FA, TA or Dexamethasone. Twelve hours post addition, growth medium was removed from each well and replaced with 860 μl of TRIzol (Thermo Fisher Scientific, MA, USA), agitated approximately 20 times and then placed in a clean 1.5 ml Eppendorf tube to extract ribonucleic acid (RNA).
Following purification of RNA, cDNA was synthesized using the Bioline Tetro kit (Bioline, Australia) as per the manufacturer's instructions. Quantitative Real Time Polymerase Chain Reaction (QRT-PCR) was undertaken to profile gene expression changes in animal and cell culture samples. TaqMan hydrolysis probes (Applied Biosystems, USA) and Gene Expression Master Mix (Applied Biosystems, USA) were used. A clear 384 well plate (Applied Biosystems, USA) was used with each biological sample plated in duplicate. A reaction mixture per sample was set up and included 0.5 μl cDNA, 4 μl Rnase Free Water, 5 μl Gene Expression Master Mix and 0.5 μl Taqman Primer Probe (Thermo Fisher Scientific), as listed in Table 2.5. The amplification of each sample was undertaken using a QuantStudio 12K Flex QRT-PCR machine (Applied Biosystems, USA). GAPDH was used as the reference gene using the comparative cycle threshold (Ct) method (ΔΔCt), as it is known not to change expression following retinal photo-oxidative damage. Data was analysed using the QuantStudio 12K Flex Software (Applied Biosystems, USA).

[2] = test system: Ccl2, Il-6, Il-8 expression in MIO-M1 cells; experiment: TNF-α stimulation of MIO-M1 cells, cytokine gene expression by QRT-PCR; format: cell-based, human; conditions: 1 μg/μl steroid, 1 ng/μl TNF-α, 12 h, versus TNF alone
Excerpt: The immortalised retinal cells used were as follows: MIO-M1 cells (Muller cell-derived; Müller 1 Moorefields, Institute of Ophthalmology, Dr A. Limb, Institute of Ophthalmology, University College, UK); ARPE19 (RPE-derived; ATCC CRL-2302, American Tissue Culture Collection, VA, USA); and 661W cells (photoreceptor-like derived; kindly gifted by Dr Muayyad R. Al-Ubaidi, Department of Cell Biology, University of Oklahoma Health Sciences Centre, Oklahoma City, OK, USA). Cells were authenticated and validated from Cell Bank Australia.
as §1, with “Twelve hours post addition, growth medium was removed from each well and replaced with 860 μl of TRIzol (Thermo Fisher Scientific, MA, USA), agitated approximately 20 times and then placed in a clean 1.5 ml Eppendorf tube to extract ribonucleic acid (RNA).” left out
Following purification of RNA, cDNA was synthesized using the Bioline Tetro kit (Bioline, Australia) as per the manufacturer's instructions. Quantitative Real Time Polymerase Chain Reaction (QRT-PCR) was undertaken to profile gene expression changes in animal and cell culture samples. […] Data was analysed using the QuantStudio 12K Flex Software (Applied Biosystems, USA).

[3] = test system: subjects with geographic atrophy (GA) secondary to AMD; experiment: Phase 1b single-dose dose-escalation intravitreal trial in geographic atrophy; format: in vivo, human
Method: To evaluate the safety and tolerability of a single-dose intravitreal (IVT) injection of 1 mg/0.1 mL and 2 mg/0.1 mL Fludrocortisone acetate (FCA) in subjects with geographic atrophy (GA) secondary to Age-Related Macular Degeneration (AMD).
Methods: This was a two-part dose-escalation prospective study. Part-1 involved a single participant treated with 1 mg/0.1 ml and monitored up to 28-days before being reviewed by a safety review committee. Two subsequent participants were then dosed with the same dose. Part-2 involved a single participant dosed with 2 mg/0.1 ml and monitored up to 28-days when a further 5 participants were dosed. All participants were followed up for 6-months after baseline.
A full ophthalmic assessment was performed at study visits which included GA area, best-corrected visual acuity (BCVA), low-luminance BCVA and intra-ocular pressure (IOP). Adverse events (AE) were reported from the first dose of FCA until the end-of-study visit.
This single-centre, phase 1b prospective, open-labeled, single-dose, dose-escalation clinical trial was conducted on 9 participants enrolled at a single site between August 2019 to April 2021. All patients were followed up for 6 months after baseline. Ethics approval was obtained before commencement and the trial was listed on the Australian and New Zealand Clinical Trial Registry (accessible via www.anzctr.org.au; ANZCTR no. 12618001308280). An independent data and safety committee provided oversight of the clinical trial. This study adhered to the tenets of the Declaration of Helsinki. Informed consent was obtained from all participants before enrolment into the study.
Fludrocortisone acetate was formulated for intravitreal administration as a powder solution for injection to ensure long-term stability similar to other cortico-steroids (15). Vials contained 10 mg of FCA powder and were reconstituted with sterile sodium chloride solution (0.9%) according to the appropriate dosage prior to injection.
Inclusion criteria referring the study eye were as follows: diagnosis of GA secondary to AMD confirmed using fundus autofluorescence (FAF) imaging, GA area between ≥1.9 and ≤17 mm2 (1 and 7 disc areas (DA) respectively), best corrected visual acuity (BCVA) of 24 letters or better using Early Treatment Diabetic Retinopathy Study (ETDRS) charts.
A full ophthalmic assessment was performed at each study visit which included GA area assessed through FAF imaging, BCVA, lower-luminance BCVA (LL-BCVA) and intra-ocular pressure (IOP). Participants were assessed at screening, baseline, day 1, day 7, day 14, day 28, day 60, day 90 and day 150 (end of study). Blood and urine samples were collected for safety analysis at screening, baseline, day 7, day 28 and day 150.
Part 1 of the study involved a single participant treated with 1 mg/0.1 ml FCA to assess safety and tolerability. This participant was followed-up for 28 days before the results were reviewed by an independent data safety monitoring committee (DSMB). Subsequent to approval by the DSMB, a further 2 participants were treated with 1 mg/0.1 ml FCA and followed-up for a further 28 days after treatment before commencement of part 2.
Part 2 involved a single dose of 2 mg/0.1 ml of FCA in a single participant and followed-up for 28 days like part 1. The DSMB reviewed the results prior to enrolment of the remaining 5 participants.
Fundus auto-fluorescence was captured using Heidelberg Spectralis (Heidelberg Engineering, Heidelberg, Germany). The assessment of GA size and progression was performed using FAF was performed by 2 graders (T.H and E.C.) in a blinded manner using Heidelberg region finder software version 2.6.2.0 (FIG. 1), a semi-automated program used to quantify atrophic areas. Baseline FAF images were defined and used to assess subsequent visits using the region finder software. In cases where there was a discrepancy of more than 20% between the two graders, a third grader (A.C.) evaluated the images. […]

[4] = fellow (uninjected) eye of treated participants, day 150

CC(=O)OCC(=O)[C@@]1(O)CC[C@H]2[C@@H]3CCC4=CC(=O)CC[C@]4(C)[C@@]3(F)[C@@H](O)C[C@@]21C [FA, 9-α-Fluoro-11 β. 17 α, 21-trihydroxy-4-pregnene-3, 20 dione acetate]
receptor mediating the impact on expression of CCL2, IL-6 and IL-8 [1]: mediated through the glucocorticoid receptor; also recorded: dependent on glucocorticoid receptor signalling | Ccl2, Il-6, and Il-8 expression after TNF stimulation [2]: significantly reduced; also recorded: drastically reduced; also recorded: significantly inhibited | loss of BCVA letters in the initial pilot participant ([3]; 1 mg/ml, day 14, one participant, deemed most likely unrelated by the DSMB): 22 letters | adverse event in one participant ([3]; 2 mg/ml, after day 90, study eye, resolved after 1 week): nasal subconjunctival haemorrhage | other adverse events throughout the study ([3]; all 9 participants): No other adverse events | systemic adverse event ([3]; dose escalation study, 9 participants): no systemic adverse event | BCVA mean change from baseline, fellow eye [3, 4]: 4.88 ± 8.37 letters | IOP mean change from baseline, fellow eye [3, 4]: −0.625 ± 4.24 mmHg | LLVA mean change from baseline, fellow eye [3, 4]: 4.5 ± 11.49 letters | GA area mean change from baseline, fellow eye ([3]; fellow (uninjected) eye of treated participants, over 6 months, listed as FCA): 0.62 mm^2 and 0.62 ± 4.49 mm^2 | clinical safety and tolerability ([3]; intravitreal, patients with GA secondary to AMD): clinically safe and well-tolerated | serious AEs (ocular or systemic) ([3]; single IVT 1 mg/0.1 ml or 2 mg/0.1 ml, 9 participants, 6 months): no serious AEs | cataract development / lens opacity ([3]; single IVT 1 or 2 mg/0.1 ml, 6 months follow-up, no formal lens grading, listed as FCA): no participants required/underwent cataract surgery; also recorded: not observed; also recorded: no evidence | increase of IOP ([3]; single IVT 1 or 2 mg/0.1 ml, study eye, 6 months follow-up, listed as FCA): No significant increases; also recorded: not observed; also recorded: did not increase; also recorded: no evidence | IOP mean change from baseline, study eye ([3]; study eye, day 150 compared to baseline, listed as FCA): −0.25 mmHg and −0.25 ± 4.06 mmHg | GA area mean change from baseline, study eye ([3]; study eye, over 6 months, FAF region finder, listed as FCA): 0.5 mm^2 and 0.5 ± 5.69 mm^2 | changes in body temperature, heart rate, systolic or diastolic blood pressure ([3]; throughout the study): no significant changes

From patent publication US20250387410A1, “TREATMENT OF ANTI-VEGF REFRACTORY OPHTHALMIC RETINAL EYE CONDITIONS” (Eye Co Pty Ltd., priority 2022, published 2025)
